{"source": "patent US9585386B2", "about": "“Microbicidal composition” (Dow Global Technologies LLC, priority 2013, dated 2017)", "format_in_all_cases": "cell-based", "key": {"any organism tested": {"tested_on": "any organism tested", "test": "Synergy of other biocides paired with surfactants", "settings": "for ratio of surfactant to biocide where synergy was observed: not commercially relevant (less biocide relative to surfactant)", "procedure": "(§1) Surfactants and biocides were evaluated for synergy by determining the synergy index (S.I.) of the combination. Synergy index was calculated based on minimum inhibitory concentrations (MIC) of two antimicrobial compounds (A and B) alone and in combinations. The tests organisms were Gram negative bacteria (Pseudomonas aeruginosa ATCC #15442), Gram positive bacteria (Staphylococcus aureus ATCC #6538), yeast (Candida albicans ATCC #10203) and mold (Aspergillus niger ATCC#16404). Contact time for the bacteria was 24 and 48 hours, yeast was 48 and 72 hrs, and 3 and 7 days for mold. The test was carried out in 96 well microtiter plates. • Surf. A R^1O(CH2CH(CH3)O)5(CH2CH2O)9H, where R^1 is 2-ethylhexyl • Surf. D R^2O(CH2CH(CH3)O)3(CH2CH2O)5H • Surf. E R^2O(CH2CH(CH3)O)3(CH2CH2O)7H In Surf. D and Surf. E, R^2 is a mixture of C8-C14 linear alkyl groups (70% C8-C10 linear alkyl and 30% C12-C14 linear alkyl) Inoculums Used\n(§2) SI is calculated as follows: Ca/CA+Cb/CB=Synergy Index (“SI”)\n(§3) Wherein: • CA=concentration of compound A in ppm, acting alone, which produced an end point (MIC of Compound A). • Ca=concentration of compound A in ppm, in the mixture, which produced an end point. • CB=concentration of compound B in ppm, acting alone, which produced an end point (MIC of Compound B). • Cb=concentration of compound B in ppm, in the mixture, which produced an end point. When the sum of Ca/CA and Cb/CB is greater than one, antagonism is indicated.\nA • Sodium Benzoate, TRIS NITRO Surf. E • DMDMH Surf. […] At these ratios, the biocide levels in a formulated product would be too low to be practical: Surf. A • DIDAC, IPBC Surf. E • CMIT/MIT, IPBC, OIT, TTPC, WSCP Surf."}, "[1]": {"tested_on": "Pseudomonas aeruginosa ATCC #15442", "test": "MIC / synergy index test in 96 well microtiter plates, Gram negative bacteria", "settings": "for Cb (concentration of compound B in the mixture which produced an end point): 1/10 TSB, 24 hrs; for MIC: Pseudomonas aeruginosa, ATCC15442, 24 h", "procedure": "as §1\n(§4) The pH of the Triptic soy broth was 7.3 and the Potato dextrose broth was 5.1.\nas §2, §3"}, "[2]": {"tested_on": "Candida albicans ATCC #10203", "test": "MIC / synergy index test in 96 well microtiter plates, yeast", "settings": "for CB (MIC of compound B alone): MIT alone; for CB (MIC of compound B alone) / Cb (concentration of compound B in the mixture which produced an end point): PDB, 48 hrs", "procedure": "as §1, §4, §2, §3"}, "[3]": {"tested_on": "Aspergillus niger ATCC#16404", "test": "MIC / synergy index test in 96 well microtiter plates, mold", "settings": "PDB, 3rd day; for MIC: Aspergillus niger, ATCC16404, read-out: CB (MIC of compound B alone), MIT alone, inoculum 1.156E+06 CFU/ml; for Cb (concentration of compound B in the mixture which produced an end point): 1.156E+06 CFU/ml", "procedure": "as §1, §4, §2, §3"}, "[4]": {"tested_on": "Staphylococcus aureus ATCC #6538", "test": "MIC / synergy index test in 96 well microtiter plates, Gram positive bacteria", "procedure": "as §1, §4, §2, §3"}}, "note": "“And” between values parts separate entries of the source, which are not always exact repeats. Identical values can stand only once. Like-named read-outs stand apart in the source and are kept apart here."}
{"compound": "CCC12COCN1COC2", "note": "[CS-1246]", "values": [{"measurement": "Synergy against any organism tested", "setting": "any organism tested; biocide paired with Surf. D", "result": "no synergy"}]}
{"compound": "CCCCCCCCCC[N+](C)(C)CCCCCCCCCC.[Cl-]", "note": "[DIDAC]", "values": [{"measurement": "ratio of surfactant to biocide where synergy was observed", "setting": "any organism tested; biocide paired with Surf. A", "result": "1:0.2 or greater"}, {"measurement": "ratio of surfactant to biocide where synergy was observed", "setting": "any organism tested; biocide paired with Surf. D", "result": "1:0.2 or greater"}]}
{"compound": "CC1(C)C(=O)N(CO)C(=O)N1CO", "note": "[DMDMH]", "values": [{"measurement": "Synergy against any organism tested", "setting": "any organism tested; biocide paired with Surf. D", "result": "no synergy"}, {"measurement": "Synergy against any organism tested", "setting": "any organism tested; biocide paired with Surf. E", "result": "no synergy"}]}
{"compound": "CCCCNC(=O)OCC#CI", "note": "[IPBC]", "values": [{"measurement": "ratio of surfactant to biocide where synergy was observed", "setting": "any organism tested; biocide paired with Surf. A", "result": "1:0.2 or greater"}, {"measurement": "ratio of surfactant to biocide where synergy was observed", "setting": "any organism tested; biocide paired with Surf. D", "result": "synergistic only at 1:0.05 or worse"}, {"measurement": "ratio of surfactant to biocide where synergy was observed", "setting": "any organism tested; biocide paired with Surf. E", "result": "1:0.2 or greater"}]}
{"compound": "Cn1sc2ccccc2c1=O", "note": "[MBIT]", "values": [{"measurement": "ratio of surfactant to biocide where synergy was observed", "setting": "any organism tested; biocide paired with Surf. D", "result": "synergistic only at 1:0.05 or worse"}]}
{"compound": "Cn1sccc1=O", "note": "[MIT, 2-methyl-4-isothiazolin-3-one]", "values": [{"measurement": "Cb (concentration of compound B in the mixture which produced an end point)", "setting": "[1]; MIT in mixture with Surf. A, 8.134E+07 CFU/ml", "result": 30, "unit": "ppm"}, {"measurement": "Cb (concentration of compound B in the mixture which produced an end point)", "setting": "[1]; MIT in mixture with Surf. D, 1.16E+08", "result": 20, "unit": "ppm"}, {"measurement": "MIC", "setting": "[1]; read-out: CB (MIC of compound B alone), MIT alone, Surf. A series, 1/10 TSB, inoculum 8.134E+07 CFU/ml", "result": 40, "unit": "µg/mL"}, {"measurement": "MIC", "setting": "[1]; read-out: CB (MIC of compound B alone), MIT alone, Surf. D series, 1/10 TSB, inoculum 1.16E+08", "result": 30, "unit": "µg/mL"}, {"measurement": "MIC", "setting": "[2]; Candida albicans, ATCC10203, 48 h, read-out: CB (MIC of compound B alone)", "result": 200, "unit": "µg/mL"}, {"measurement": "CB (MIC of compound B alone)", "setting": "[2]; Surf. D series, inoculum 5.726E+05 CFU/ml", "result": 200, "unit": "ppm"}, {"measurement": "CB (MIC of compound B alone)", "setting": "[2]; Surf. E series, inoculum 1.808E+06", "result": 200, "unit": "ppm"}, {"measurement": "Cb (concentration of compound B in the mixture which produced an end point)", "setting": "[2]; MIT in mixture with Surf. A, 1.156E+06 CFU/ml", "result": 100, "unit": "ppm"}, {"measurement": "Cb (concentration of compound B in the mixture which produced an end point)", "setting": "[2]; MIT in mixture with Surf. D, 5.726E+05 CFU/ml", "result": "50 ppm and 60 ppm and 80 ppm and 100 ppm"}, {"measurement": "MIC", "setting": "[3]; Surf. A series", "result": 400, "unit": "µg/mL"}, {"measurement": "MIC", "setting": "[3]; Surf. E series", "result": 300, "unit": "µg/mL"}, {"measurement": "Cb (concentration of compound B in the mixture which produced an end point)", "setting": "[3]; MIT in mixture with Surf. A", "result": 300, "unit": "ppm"}, {"measurement": "Cb (concentration of compound B in the mixture which produced an end point)", "setting": "[3]; MIT in mixture with Surf. E", "result": 200, "unit": "ppm"}, {"measurement": "CB (MIC of compound B alone)", "setting": "[4]; MIT alone, Surf. E series, 1/10 TSB, inoculum 1.808E+06 CFU/ml, 24 hrs", "result": 60, "unit": "ppm"}, {"measurement": "Cb (concentration of compound B in the mixture which produced an end point)", "setting": "[4]; MIT in mixture with Surf. E, 1/10 TSB, 1.808E+06 CFU/ml, 24 hrs", "result": "50 ppm and 40 ppm and 30 ppm"}, {"measurement": "MIC", "setting": "[4]; Staphylococcus aureus, ATCC6538, 24 h, read-out: CB (MIC of compound B alone)", "result": 60, "unit": "µg/mL"}]}
{"compound": "CCCCCCCCn1sccc1=O", "note": "[OIT]", "values": [{"measurement": "ratio of surfactant to biocide where synergy was observed", "setting": "any organism tested; biocide paired with Surf. D", "result": "1:0.2 or greater"}, {"measurement": "ratio of surfactant to biocide where synergy was observed", "setting": "any organism tested; biocide paired with Surf. E", "result": "1:0.2 or greater"}]}
{"compound": "Oc1ccccc1-c1ccccc1", "note": "[OPP]", "values": [{"measurement": "Synergy against any organism tested", "setting": "any organism tested; biocide paired with Surf. D", "result": "no synergy"}]}
{"compound": "O=C([O-])c1ccccc1.[Na+]", "note": "[Sodium Benzoate]", "values": [{"measurement": "Synergy against any organism tested", "setting": "any organism tested; biocide paired with Surf. A", "result": "no synergy"}]}
{"compound": "O=[N+]([O-])C(CO)(CO)CO", "note": "[TRIS NITRO]", "values": [{"measurement": "Synergy against any organism tested", "setting": "any organism tested; biocide paired with Surf. A", "result": "no synergy"}]}
{"compound": "CCCCCCCCCCCCCC[P+](CCCC)(CCCC)CCCC.[Cl-]", "note": "[TTPC]", "values": [{"measurement": "ratio of surfactant to biocide where synergy was observed", "setting": "any organism tested; biocide paired with Surf. E", "result": "1:0.2 or greater"}]}
